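Where inhibition never reached the appropriate level, the endpoint shown equals the highest concentration tested. Otherwise, values were interpolated linearly from a five-concentration, 48-hour dose response in 96-well plates. TGI is the concentration that stops growth completely.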
Key:
Test in all cases: NCI-60 cell line screen, 48 h
786-0 renal = test system: 786-0 renal
A549 NSCLC = test system: A549 NSCLC
ACHN renal = test system: ACHN renal
CAKI-1 renal = test system: CAKI-1 renal
CCRF-CEM leukemia = test system: CCRF-CEM leukemia
COLO 205 colon = test system: COLO 205 colon
DLD-1 colon = test system: DLD-1 colon
DMS 114 small cell lung = test system: DMS 114 small cell lung
DMS 273 small cell lung = test system: DMS 273 small cell lung
EKVX NSCLC = test system: EKVX NSCLC
HCC-2998 colon = test system: HCC-2998 colon
HCT-116 colon = test system: HCT-116 colon
HCT-15 colon = test system: HCT-15 colon
HL-60(TB) leukemia = test system: HL-60(TB) leukemia
HOP-18 NSCLC = test system: HOP-18 NSCLC
HOP-62 NSCLC = test system: HOP-62 NSCLC
HOP-92 NSCLC = test system: HOP-92 NSCLC
HT29 colon = test system: HT29 colon
IGROV1 ovarian = test system: IGROV1 ovarian
K-562 leukemia = test system: K-562 leukemia
KM12 colon = test system: KM12 colon
KM20L2 colon = test system: KM20L2 colon
LOX IMVI melanoma = test system: LOX IMVI melanoma
LXFL 529 NSCLC = test system: LXFL 529 NSCLC
M14 melanoma = test system: M14 melanoma
MALME-3M melanoma = test system: MALME-3M melanoma
MOLT-4 leukemia = test system: MOLT-4 leukemia
NCI-H226 lung = test system: NCI-H226 lung
NCI-H23 lung = test system: NCI-H23 lung
NCI-H460 lung = test system: NCI-H460 lung
NCI-H522 lung = test system: NCI-H522 lung
OVCAR-3 ovarian = test system: OVCAR-3 ovarian
OVCAR-4 ovarian = test system: OVCAR-4 ovarian
OVCAR-5 ovarian = test system: OVCAR-5 ovarian
OVCAR-8 ovarian = test system: OVCAR-8 ovarian
RPMI-8226 leukemia = test system: RPMI-8226 leukemia
RXF 393 renal = test system: RXF 393 renal
SF-268 CNS = test system: SF-268 CNS
SF-295 CNS = test system: SF-295 CNS
SF-539 CNS = test system: SF-539 CNS
SK-MEL-2 melanoma = test system: SK-MEL-2 melanoma
SK-MEL-28 melanoma = test system: SK-MEL-28 melanoma
SK-MEL-5 melanoma = test system: SK-MEL-5 melanoma
SK-OV-3 ovarian = test system: SK-OV-3 ovarian
SN12C renal = test system: SN12C renal
SNB-19 CNS = test system: SNB-19 CNS
SNB-75 CNS = test system: SNB-75 CNS
SNB-78 CNS = test system: SNB-78 CNS
SR leukemia = test system: SR leukemia
SW-620 colon = test system: SW-620 colon
TK-10 renal = test system: TK-10 renal
U251 CNS = test system: U251 CNS
UACC-257 melanoma = test system: UACC-257 melanoma
UACC-62 melanoma = test system: UACC-62 melanoma
UO-31 renal = test system: UO-31 renal
XF 498 CNS = test system: XF 498 CNS

Measured: TGI

COc1ccc(NC(=O)C(=O)C2CNC(=O)NC2=O)c(OC)c1 (stereo unspecified)
> 100 µM: 786-0 renal | A549 NSCLC | ACHN renal | CAKI-1 renal | CCRF-CEM leukemia | COLO 205 colon | DLD-1 colon | DMS 114 small cell lung | DMS 273 small cell lung | EKVX NSCLC | HCC-2998 colon | HCT-116 colon | HCT-15 colon | HL-60(TB) leukemia | HOP-18 NSCLC | HOP-62 NSCLC | HOP-92 NSCLC | HT29 colon | IGROV1 ovarian | K-562 leukemia | KM12 colon | KM20L2 colon | LOX IMVI melanoma | LXFL 529 NSCLC | M14 melanoma | MALME-3M melanoma | MOLT-4 leukemia | NCI-H226 lung | NCI-H23 lung | NCI-H460 lung | NCI-H522 lung | OVCAR-3 ovarian | OVCAR-4 ovarian | OVCAR-5 ovarian | OVCAR-8 ovarian | RPMI-8226 leukemia | RXF 393 renal | SF-268 CNS | SF-295 CNS | SF-539 CNS | SK-MEL-2 melanoma | SK-MEL-28 melanoma | SK-MEL-5 melanoma | SK-OV-3 ovarian | SN12C renal | SNB-19 CNS | SNB-75 CNS | SNB-78 CNS | SR leukemia | SW-620 colon | TK-10 renal | U251 CNS | UACC-257 melanoma | UACC-62 melanoma | UO-31 renal | XF 498 CNS

COC(=O)/C(C#N)=C1\CCC(O)N1C (stereo unspecified)
> 100 µM: 786-0 renal | A549 NSCLC | ACHN renal | CAKI-1 renal | CCRF-CEM leukemia | DLD-1 colon | DMS 114 small cell lung | EKVX NSCLC | HCC-2998 colon | HCT-116 colon | HL-60(TB) leukemia | HOP-18 NSCLC | HOP-62 NSCLC | HT29 colon | IGROV1 ovarian | K-562 leukemia | KM12 colon | KM20L2 colon | LOX IMVI melanoma | LXFL 529 NSCLC | M14 melanoma | MALME-3M melanoma | MOLT-4 leukemia | NCI-H226 lung | NCI-H23 lung | NCI-H460 lung | NCI-H522 lung | OVCAR-3 ovarian | OVCAR-4 ovarian | OVCAR-5 ovarian | OVCAR-8 ovarian | RPMI-8226 leukemia | RXF 393 renal | SF-268 CNS | SF-295 CNS | SF-539 CNS | SK-MEL-2 melanoma | SK-MEL-28 melanoma | SK-OV-3 ovarian | SN12C renal | SNB-19 CNS | SNB-75 CNS | SNB-78 CNS | SW-620 colon | TK-10 renal | U251 CNS | UACC-257 melanoma | UACC-62 melanoma | UO-31 renal | XF 498 CNS
